One series deals with human NTSR-1 (Homo sapiens (Human), UniProt P30989). Kind of series: radioligand competitive binding assay using ^177Lu labeled C-1 as reference radioligand. Particulars: for Relative Binding Affinity: Mean IC50 of C-1/Mean IC50 of the test compound; for IC50: Nonlin fit, single assay, HT-29 cells; for binding affinity compared to comparator compound C-1 or C-3: single radioligand competitive binding assay. As to the method:
The binding affinities of test compounds were determined by a radioligand competitive binding assay using ^177Lu labeled C-1 as the reference radioligand.
Briefly, 100 μL HT-29 cells expressing human NTSR-1 at a density of 1˜2×10^6 cells/mL were mixed with binding buffer (RPMI-1640 medium supplemented with 0.25% bovine serum albumin) in each well of the 96-well filter plate (Millipore). Then the cells in each well were incubated with ^177Lu—C-1 (0.55 μCi/well) and the test compound under 37° C. for 1 hr (n=3). After incubation, unbound ^177Lu—C-1 and the test compound in each well was removed by filtration using a Multiscreen vacuum manifold (Millipore) and the cells were further rinsed with the binding buffer for 5 times. The cells from each well were then collected and radioactivity of the cells in each well was individually measured by y counter (2480 WIZARD2, PerkinElmer). The best-fit IC50 value of test compounds (inhibitory concentration when 50% of the bound ^177Lu—C-1 on cells were displaced) were calculated by fitting the data with nonlinear regression using GraphPad Prism 8.0.1.

The test system of series [1] is ASPC-1 tumor-bearing mice. Kind of series: Biodistribution of radionuclide labeled complexes in ASPC-1 tumor-bearing mice. Particulars: ^177Lu-labeled complex. Format: in vivo, BALB/c nude mice. Here is the method:
The BALB/c nude mice (Charles River, Beijing) were utilized to establish the xenografted model for biodistribution study. All animal care and experimental procedure were performed by following the animal protocols approved by the ethics committee of China Institute of Radiation Protection.
Briefly, each mouse was inoculated with approximately 4×10^6 ASPC-1 cells (human pancreatic cancer cell line) or HT-29 cells (human colorectal adenocarcinoma cell line) expressing human NTSR-1 by subcutaneous injection at rear flank. After inoculation, the xenografted tumors were allowed to grow for ˜2-4 weeks till the tumor weight reached to about 0.05 to 0.50 g (0.20 g in average).
Biodistribution studies were performed by administrating the radionuclide labeled test compound at a dose of ˜30-50 μCi (100 μL in 0.9% NaCl, ˜1.11-1.85 MBq, with specific activity 30-250 μCi/nmol) to each animal through tail vein injection.
At different time points after the administration, the mice treated with each compound were euthanized. The tissues and organs of the animals in each group were collected, excised, weighed, and analyzed in a PerkinElmer 2480 WIZARD2γ counter, and the percent injected dose (% ID) and % ID/g of each organ or tissue were calculated.

Setting [2] is: read-out: LogIC50 Mean (converted).

The results in this text go back to patent US20240287046A1, “COMPOUNDS AND RADIOLIGANDS FOR TARGETING NEUROTENSIN RECEPTOR AND USES THEREOF” (Full-Life Technologies HK Limited, priority 2022, published 2024).

Like-named read-outs stand apart in the source and are kept apart here.

Chain of human NTSR-1 (P30989 whole entry): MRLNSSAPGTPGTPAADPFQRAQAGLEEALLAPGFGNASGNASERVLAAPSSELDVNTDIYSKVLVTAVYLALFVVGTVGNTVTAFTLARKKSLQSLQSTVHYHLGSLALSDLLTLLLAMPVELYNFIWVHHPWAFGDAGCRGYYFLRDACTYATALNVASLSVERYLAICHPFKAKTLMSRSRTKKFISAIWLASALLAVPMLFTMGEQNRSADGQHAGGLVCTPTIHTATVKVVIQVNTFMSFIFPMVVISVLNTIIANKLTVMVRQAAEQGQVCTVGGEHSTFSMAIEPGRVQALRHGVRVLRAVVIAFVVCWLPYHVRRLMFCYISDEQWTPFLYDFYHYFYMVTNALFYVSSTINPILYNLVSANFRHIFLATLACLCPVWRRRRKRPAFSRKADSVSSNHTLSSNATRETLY

For `COc1cccc(OC)c1-c1cc(C(=O)NC2(C(=O)O)C3CC4CC(C3)CC2C4)nn1-c1ccc(NC(=O)COCCOCCNC(=O)CN2CCN(CC(=O)O)CCN(CC(=O)O)CCN(CC(=O)O)CC2)cc1C(C)C` (centres unmarked) [Compound I-12], the “Relative Binding Affinity” value on human NTSR-1 worked out at 11.2.
With `COc1cccc(OC)c1-c1cc(C(=O)NC2(C(=O)O)C3CC4CC(C3)CC2C4)nn1-c1ccc(N(C)CCCN(C)CCCN(C)C(=O)CN2CCN(CC(=O)O)CCN(CC(=O)O)CCN(CC(=O)O)CC2)cc1C(C)C` (centres unmarked) [Compound I-1, 2,2′,2″-(10-(2-((3-((3-((4-(3-((2-carboxyadamantan-2-yl)carbamoyl)-5-(2,6-dimethoxyphenyl)-1H-pyrazol-1-yl)-3-isopropylphenyl)(methyl)amino)propyl)(methyl)amino)propyl)(methyl)amino)-2-oxoethyl)-1,4,7,10-tetraazacyclododecane-1,4,7-triyl)triacetic acid], on human NTSR-1, the “Relative Binding Affinity” value was determined as 82.6 and the “binding affinity compared to comparator compound C-1 or C-3” value was “higher binding affinity”. On human NTSR-1 (read-out: IC50 (nM) Mean), the IC50 came out at 0.465 nM. Moreover, the IC50 on human NTSR-1 (setting [2]) is 0.465 nM. Further, in series [1], the “AUC (0-72 h) ratio Tumor/Blood” value is recorded as 36.5, the “AUC (0-72 h) ratio Tumor/Kidney” value was found to be 5.6, the “AUC (0-72 h) ratio Tumor/Liver” value is listed as 12.8 and the “AUC (0-72 h) ratio Tumor/Lung” value is 39.3.
On to `COc1cccc(OC)c1-c1cc(C(=O)NC2(C(=O)O)C3CC4CC(C3)CC2C4)nn1-c1ccc(NCCCCCN(C)C)cc1C(C)C` (centres unmarked) [II-3, 2-(5-(2,6-dimethoxyphenyl)-1-(4-((5-(dimethylamino)pentyl)amino)-2-isopropylphenyl)-1H-pyrazole-3-carboxamido)adamantane-2-carboxylic acid], for which the “Relative Binding Affinity” value at human NTSR-1 was 535.2.
Take `COc1cccc(OC)c1-c1cc(C(=O)NC2(C(=O)O)C3CC4CC(C3)CC2C4)nn1-c1ccc(NCCCN(C)CCCNC(=O)CN2CCN(CC(=O)O)CCN(CC(=O)O)CCN(CC(=O)O)CC2)cc1C(C)C` (centres unmarked) [Compound I-2, 2,2′,2″-(10-(2-((3-((3-((4-(3-((−2-carboxyadamantan-2-yl)carbamoyl)-5-(2,6-dimethoxyphenyl)-1H-pyrazol-1-yl)-3-isopropylphenyl)amino)propyl)(methyl)amino)propy)amino)-2-oxoethyl)-1,4,7,10-tetraazacyclododecane-1,4,7-triyl)triacetic acid]: the IC50 at human NTSR-1 (read-out: IC50 (nM) Mean) was 0.559 nM. Further, the IC50 at human NTSR-1 (setting [2]) was 0.558 nM. For the same molecule, in series [1], the “AUC (0-72 h) ratio Tumor/Blood” value is 12.5, the “AUC (0-72 h) ratio Tumor/Kidney” value is on record as 10.4, the “AUC (0-72 h) ratio Tumor/Liver” value is reported as 10.6 and the “AUC (0-72 h) ratio Tumor/Lung” value is given as 39.4.
In the case of `COc1cccc(OC)c1-c1cc(C(=O)NC2(C(=O)O)C3CC4CC(C3)CC2C4)nn1-c1ccc(N(CCCN(C)C)C(C)=O)cc1C(C)C` (centres unmarked) [Compound C-4, reference compound], the “Relative Binding Affinity” value on human NTSR-1 was 22.0.
In the case of `COc1cccc(OC)c1-c1cc(C(=O)NC2(C(=O)O)C3CC4CC(C3)CC2C4)nn1-c1ccc(N(CCCN(C)C)C(=O)COCCOCCNC(=O)CN2CCN(CC(=O)O)CCN(CC(=O)O)CC2)cc1C(C)C` (centres unmarked) [Compound I-13], at human NTSR-1, the “Relative Binding Affinity” value worked out at 14.6.
Consider `COc1cccc(OC)c1-c1cc(C(=O)NC2(C(=O)O)C3CC4CC(C3)CC2C4)nn1-c1ccc(NCCCN(C)C)cc1C(C)C` (centres unmarked) [II-1, 2-(5-(2,6-dimethoxyphenyl)-1-(4-((3-(dimethylamino)propyl)amino)-2-isopropylphenyl)-1H-pyrazole-3-carboxamido)adamantane-2-carboxylic acid], for which, on human NTSR-1, the “Relative Binding Affinity” value is on record as 107.6. The “improvement of potency vs SR142948 (C-3)” value on human NTSR-1 (removal of the carbonyl group from the amide group) is at least 10 fold.
Regarding `COc1cccc(OC)c1-c1cc(C(=O)NC2(C(=O)O)C3CC4CC(C3)CC2C4)nn1-c1ccc(NCCCCN(C)C)cc1C(C)C` (centres unmarked) [II-2, 2-(5-(2,6-dimethoxyphenyl)-1-(4-((4-(dimethylamino)butyl)amino)-2-isopropylphenyl)-1H-pyrazole-3-carboxamido)adamantane-2-carboxylic acid], on human NTSR-1, the “Relative Binding Affinity” value turned out to be 293.0 and the “binding affinity compared to comparator compound C-1 or C-3” value is reported as “higher binding affinity”. Further, the IC50 at human NTSR-1 (setting [2]) was 0.158 nM.
With `COc1cccc(OC)c1-c1cc(C(=O)NC2(C(=O)O)C3CC4CC(C3)CC2C4)nn1-c1ccc(NCCCN(C)CCCNC(=O)COCCOCCNC(=O)CN2CCN(CC(=O)O)CCN(CC(=O)O)CCN(CC(=O)O)CC2)cc1C(C)C` (centres unmarked) [Compound I-3, 2,2′,2″-(10-(19-((4-(3-((2-carboxyadamantan-2-yl)carbamoyl)-5-(2,6 dimethoxyphenyl)-1H-pyrazol-1-yl)-3-isopropylphenyl)amino)-16-methyl-2,11-dioxo-6,9-dioxa-3,12,16-triazanonadecyl)-1,4,7,10-tetraazacyclododecane-1,4,7-triyl)tracetic acid], the “Relative Binding Affinity” value at human NTSR-1 was 519.8.
As for `COc1cccc(OC)c1-c1cc(C(=O)NC2(C(=O)O)C3CC4CC(C3)CC2C4)nn1-c1ccc(NCCOCCOCCNC(=O)CN2CCN(CC(=O)O)CCN(CC(=O)O)CCN(CC(=O)O)CC2)cc1C(C)C` (centres unmarked) [Compound I-10, 2,2′,2″-(10-(2-((2-(2-(2-((4-(3-((2-carboxyadamantan-2-yl)carbamoyl)-5-(2,6-dimethoxyphenyl)-1H-pyrazol-1-yl)-3-isopropylphenyl)amino)ethoxy)ethoxy)ethyl)amino)-2-oxoethyl)-1,4,7,10-tetraazacyclododecane-1,4,7-triyl)triacetic acid], at human NTSR-1, the “binding affinity vs 3BP-227 (C-2) on removal of the tertiary amine motif in the linker” value is on record as “not compromise the binding affinity” and the “Relative Binding Affinity” value amounted to 28.3. In addition, in series [1], the “AUC (0-72 h) ratio Tumor/Blood” value worked out at 58.0, the “AUC (0-72 h) ratio Tumor/Kidney” value is listed as 15.4, the “AUC (0-72 h) ratio Tumor/Liver” value is reported as 41.1 and the “AUC (0-72 h) ratio Tumor/Lung” value turned out to be 31.3.
For `COc1cccc(OC)c1-c1cc(C(=O)NC2(C(=O)O)C3CC4CC(C3)CC2C4)nn1-c1ccc(N(C)CCCN(C)CCCN(C)C(=O)COCCOCCNC(=O)CN2CCN(CC(=O)O)CCN(CC(=O)O)CCN(CC(=O)O)CC2)cc1C(C)C` (centres unmarked) [Compound I-4, 2,2′,2″-(10-(2-(4-(3-((2-carboxyadamantan-2-yl)carbamoyl)-5-(2,6-dimethoxyphenyl)-1H-pyrazol-1-yl)-3-isopropylphenyl)-6,10-dimethyl-11,20-dioxo-13,16-dioxa-2,6,10,19-tetraazahenicosan-21-yl)-1,4,7,10-tetraazacyclododecane-1,4,7-triyl)triacetic acid], the “Relative Binding Affinity” value at human NTSR-1 was 538.2.
Turning to `CC(=O)N[C@@H](CCCCNC(=O)CN1CCN(CC(=O)O)CCN(CC(=O)O)CCN(CC(=O)O)CC1)C(=O)N1CCC[C@H]1C(=O)N(C)[C@@H](CCCNC(=N)N)C(=O)N[C@@H](CCCNC(=N)N)C(=O)N1CCC[C@H]1C(=O)N[C@@H](Cc1ccc(O)cc1)C(=O)N[C@H](C(=O)N[C@@H](CC(C)C)C(=O)O)C(C)(C)C` [Compound C-1, reference compound], at human NTSR-1, the “Relative Binding Affinity” value was determined as 1.00. Also, the IC50 at human NTSR-1 (read-out: IC50 (nM) Mean) was 40.3 nM; at human NTSR-1 (setting [2]), 40.4 nM.
With `COc1cccc(OC)c1-c1cc(C(=O)NC2(C(=O)O)C3CC4CC(C3)CC2C4)nn1-c1ccc(CCCCN(C)CCCN(C)C(=O)CN2CCN(CC(=O)O)CCN(CC(=O)O)CCN(CC(=O)O)CC2)cc1C(C)C` (centres unmarked) [Compound I-9, 2,2′,2″-(10-(2-((3-((4-(4-(3-((2-carboxyadamantan-2-yl)carbamoyl)-5-(2,6-dimethoxyphenyl)-1H-pyrazol-1-yl)-3-isopropylphenyl)butyl)(methyl)amino)propyl)(methyl)amino)-2-oxoethyl)-1,4,7,10-tetraazacyclododecane-1,4,7-triyl)triacetic acid], the “Relative Binding Affinity” value on human NTSR-1 was found to be 243.5.
